For series [1], the system named is Human breast adenocarcinoma cells, MDA-MB-231. The experiment in a line: Matrigel cell invasion assay, breast cancer cells. To be noted: 50 nM ATX. Type of series: cell-based. As to the method:
(§1) Cell culture: Human melanoma cells, A2058 (ATCC), were grown in Dulbecco's Modified Eagle's Medium (DMEM) (Gibco), MeI 28 (ATCC), YUSAC2 (Yale University) and MeI-888 (Yale University) were grown in OptiMEM media (Gibco), and HTB 63 (ATCC) were grown in McKoy's 5a medium (ATCC). Human breast adenocarcinoma cells, MDA-MB-231(ATCC) and ovarian carcinoma cells R182 (Gil Mor, Yale University) were grown in RPMI-1640 (Gibco). All cell media was supplemented with 10% (v/v) fetal calf serum (FCS) (Gibco) and 1% (v/v) L-glutamine (Gibco) and grown at 37° C. in a humidified atmosphere containing 5% CO2.
(§2) Cell invasion assays: Matrigel matrix (1 mg/ml, Becton Dickenson) was added to […] gelatin-coated membranes placed in cell culture inserts (BD Falcon) and allowed to set for 24 hours at room temperature. The inserts were placed into companion 24 well plates (BD Falcon), and chemo-attractants (ATX ±inhibitors) and/or controls were added to the bottom of the wells. Cells (1×10^6) were added to the inserts and incubated for 3 hours at 37° C. Following incubation, the inserts were removed, fixed in 100% methanol, stained with DiffQuick solution, and mounted on glass slides. Non-invading cells were removed by scraping away the matrigel, and migrating cells were quantitated by counting cell number per high-powered field.

Series [2] deals with ovarian carcinoma cells R182. The experiment in a line: Matrigel cell invasion assay, primary ovarian cancer cells. It counts as cell-based, human. To be noted: 50 nM ATX. The method, then: as §1, §2
For series [3] the following is noted: oral doses of 50 mg/kg in 3 divided alternate daily doses for 5 days; rabbits, dogs, and humans; cited from earlier work.
For series [4], the system named is melanoma cell line HTB 63. The experiment in a line: Cell migration assay, melanoma cell line HTB 63. It counts as cell-based, human. The method, then:
9B. […] All error bars in this figure indicate the standard error of the mean for nine replicates. The addition of LPA to the experimental groups containing inhibitors (LPA rescue) completely abrogated the small molecule inhibitory effect on cell motility (see discussion). […] Cell culture: Human melanoma cells, A2058 (ATCC), were grown in Dulbecco's Modified Eagle's Medium (DMEM) (Gibco), MeI 28 (ATCC), YUSAC2 (Yale University) and MeI-888 (Yale University) were grown in OptiMEM media (Gibco), and HTB 63 (ATCC) were grown in McKoy's 5a medium (ATCC). Human breast adenocarcinoma cells, MDA-MB-231(ATCC) and ovarian carcinoma cells […] (Gil Mor, Yale University) were grown in RPMI-1640 (Gibco). All cell media was supplemented with 10% (v/v) fetal calf serum (FCS) (Gibco) and 1% (v/v) L-glutamine (Gibco) and grown at 37° C. in a humidified atmosphere containing 5% CO2. Cell motility assays: […] Chemo-attractant (ATX ±inhibitor) and/or controls were placed in the lower half of the chamber, and the cells in the upper chamber. […] Non-migrating cells were removed from the membrane by scraping the top surface. The cells were quantitated by counting the cell number per high powered field in the various wells. Treatments were compared using a chi squared test.

The conditions of series [5]: oral, ref. [43]; cited from earlier work.
Series [6] deals with human melanoma cell line A2058. Briefly: Melanoma invasion and metastasis in vivo, nude mice with subcutaneous A2058. To be noted: oral gavage of bithionol-cyclodextrin suspension. As to the method: (§3) Nude mice were inoculated with human melanoma cell line A2058 subcutaneously in the right flank and observed until the tumor was palpable (about 5-8 days). The mice were then treated with oral gavage of a bithionol-cyclodextrin suspension (A-D) or a cyclodextrin suspension alone (E-H). […] Two of the untreated mice developed large tumors in the right hindquarter (cyan arrow, E) that grossly invaded the right gluteous maximus and could not be dissected without amputation (E&F). […] Of the remaining untreated mice, one developed a modest sized tumor with microscopic evidence of invasion, and a one developed a tumor without gross or microscopic evidence of invasive tumor.
as §3, with “The present invention was also tested in vivo. Nude” for “Nude”

The target of another series is T1, ATX lyso-PLD activity (Homo sapiens, UniProt Q13822).
T1 construct: consistent with a mature, glycosylated form of the enzyme; TEV cleavage site (C); 9-His (C); 6-His (C); made in house; host or cells: High Five insect cells (baculovirus, p-DEST-8)
Briefly: Time course assay of ATX lyso-PLD activity (FS-3 fluorescent product) with or without 10 μM compound over 30 minutes. Type of series: biochemical. Conditions: 10 μM inhibitor, 30 minute interval, 300 nM ATX. As to the method:
C. Structure of hexachlorophene, merbromin. Bithionol and their analogs -2,2′-Methylenebis(4-chlorophenol), Eosin Y and RJC 03297, respectively. D. Structure of NSC 48300 and its analogs. […] The assay conditions are 300 nM ATX in the presence or absence of 10 μM compound over 30 minutes.
Inhibitor screen: High throughput screens were performed against two libraries: the GenPlus library of 960 compounds (NINDS Custom Collection, MicroSource Discovery systems) and the NCI Diversity Set (1990 compounds, see http://dtp.nci.nih.gov/branches/dscb/repo_open.html). The screens were performed at the Yale Center for Chemical Genomics utilizing a Tecan Aquarius robot in combination with an Aquarius liquid handler and a Freedom EVO Workstation. A V&P Scientific 384 pin tool transferred small molecules (10 mM stock) from library plates into the optically clear, 384 well assay plates, and an Aquarius liquid handling robot transferred protein into the individual wells. The assays were performed in a total volume of 50 μL in assay buffer (50 mM Tris, 140 mM NaCl, 1 mM MgCl2, and 5 mM CaCl2, pH 8.0). Absorbance of p-nitrophenylate, the product of ATX's PDE activity with pNP-TMP (discussed below) was measured at 405 nm over a period of 12 hours. To monitor lysophospholipase-D activity, the fluorescence of FS-3 (625 nM or 4 μM) was monitored (λex=480 nm, λem=535 nm) in assay buffer over a period of 30 minutes in the presence of 300 nM ATX and 10 μM compound. The assay was evaluated using a statistical Z′ analysis, a quantitative measure to determine assay robustness for single point analysis on a high throughput screening platform. The Z′ analysis was performed from 32 maximum control values (c+) and 32 minimum controls (c−) on each plate. Assays consistently performed with Z′ factors of 0.75-0.85, higher than the minimum 0.5 considered robust.
Inhibition of ATX lyso-PLD activity by several NSC48300 analogs was qualitatively compared in a time course assay by measuring the production of fluorescent product in the presence or absence of 10 µM inhibitor over a 30 minute interval.

Consider two compounds from patent US20110110886A1, “SMALL MOLECULE INHIBITORS OF AUTOTAXIN AND METHODS OF USE” (Yale University, priority 2008, published 2011).

Structures are written as SMILES.

On to `Oc1c(Cl)cc(Cl)cc1Sc1cc(Cl)cc(Cl)c1O` [Bithionol], for which the “reduction of ATX-stimulated breast cancer cell invasion” value in series [1] is on record as “could be reduced”. Further, the “reduction of ATX-stimulated ovarian cancer cell invasion” value in series [2] is given as “could be reduced”. The serum levels in series [3] is 140 to 550 µM. Also, in series [4] (50 nM ATX, 3 hours), the “inhibition of ATX-stimulated HTB63 cell migration” value is “can be inhibited”. In addition, the “LPA rescue of inhibited HTB63 cell migration” value in series [4] (excess LPA (75 nM)) is “rescued by excess LPA”. For the same compound, the “dose that can be safely dosed in humans” value in series [5] was 25 mg kg^−1 body weight per day. The “microscopic appearance of the tumors” value in series [6] is on record as “self-contained balls of tumor cells (C) with a pushing border”. In addition, the “gross evidence of metastatic melanoma upon necropsy” value in series [6] (5 mice) is listed as “lacked gross evidence of metastatic melanoma”.
For the compound `O=[As](O)(O)c1ccc(Cc2ccc([As](=O)(O)O)cc2)cc1` [NSC 48300], the “reduction of ATX-stimulated breast cancer cell invasion” value in series [1] was “could be reduced”. In series [2], the “reduction of ATX-stimulated ovarian cancer cell invasion” value is on record as “could be reduced”. In addition, the “less product formation when compared to the enzyme alone” value at ATX lyso-PLD activity stood at 98.0%.
